Assay: Tolerability in subcutaneous NB model (MTD, adverse effects, body weight)
Type: in vivo
Conditions: 50 mg/kg BID oral gavage, NB-bearing mice
Method: In other set of experiments, Balb/c nude mice were xenografted with SH-SY5Y cells as earlier. […] Tumors were measured twice weekly using callipers, and volume was calculated using the formula: Length × Width^2 × 0.5. Body weight was also assessed twice weekly. The experiment was terminated after 3 weeks of treatment.

Compound: C[C@@H](Oc1cc(-c2cnn(C3CCNCC3)c2)cnc1N)c1c(Cl)ccc(F)c1Cl [crizotinib, Crizotinib]
- mice weight over time: No signs of severe weight

Source: article PMC4745691, “New therapeutic strategies in neuroblastoma: combined targeting of a novel tyrosine kinase inhibitor and liposomal siRNAs against ALK” (Oncotarget, 2015)
